Reference: patent US20130326728A1, “AGENTS FOR INCREASED RESISTANCE AGAINST OXIDATIVE STRESS CONDITIONS” (KATHOLIEKE UNIVERSITEIT LEUVEN, priority 2010, published 2013)
“Also recorded” adds a separate entry of the source.

Legend:
[1] = test system: Saccharomyces cerevisiae strain BY4741; experiment: Halo test of H2O2 tolerance of OSIP-overexpressing yeast; type: cell-based; details: 15 μL of 240 mM H2O2, galactose vs glucose agar, 48 h at 30° C.; versus negative controls
Method: Resistance of the selected yeast transformants and the two positive control transformants against oxidative stress induced by H2O2 was additionally assayed in a halo test, by spotting 15 μL of 240 mM H2O2 on SC-ura agar, containing either glucose or galactose, and inoculated with 1/200 of overnight yeast culture as described previously (23). After 48 h of incubation at 30° C., diameters of the halos were measured.
The halo-test comprises a predefined but continuous concentration gradient of H2O2, applied to inoculated agar plates. Upon incubation, circles (halos) of growth inhibition are visible. By comparing the diameter of the halos of plates with yeast grown on glucose (not allowing for expression of the OSIP) and galactose (inducing overexpression of the OSIP) the effect of the OSIP on oxidative stress tolerance was quantified.

yeast Δccc2 mutant [2] = experiment: Copper-induced growth inhibition of yeast Δccc2 mutant overexpressing the OSIP108 gene; type: cell-based; details: overexpression of the gene encoding OSIP108
Text: Copper ions are known to induce apoptosis of hepatocytes, one of the underlying mechanisms of copper-induced toxicity in Wilson's Disease (WD). WD is caused by mutations in the ATPase ATP7b.

[3] = test system: CHO cell lines expressing ATP7b mutant H1069Q; experiment: Viability (MTT) of CHO cells expressing ATP7b mutant H1069Q under toxic copper; type: cell-based; details: 100 μM OSIP108, 0.75 mM copper, 48 h
Method: (§1) No: viability of cells without addition of peptide; OSIP: OSIP108 was added simultaneously added to cells together with Cu; and OSIP pre: cells were preincubated with the peptide for 12 h prior to addition of Cu.
(§2) CHO cell lines expressing either ATP7b or ATP7b mutant H1069Q (a mutation frequently found in patients having Wilson's Disease) were incubated with OSIP108 (100 μM). The viability of cells was determined after 48 h exposure to toxic copper concentrations of 0.75 mM by MTT assay and calculated relative to cells that receive no copper (100%).

WT yeast = experiment: Survival assay of peroxide-treated WT yeast with exogenous OSIP; type: cell-based; details: for effect on survival of yeast cells after treatment with peroxide (in words): exogenous addition of the peptides
Method: (§3) ROS, after H2O2 treatment in the absence or presence of 500 μM OSIP, were determined using 2,7-dichlorodihydrofluorescein diacetate (H2DCFDA) staining as described previously (24). Survival of WT yeast in PBS following H2O2 treatment in the absence or presence of 500 μM OSIP was assessed as described (25).
(§4) The effect of OSIP108 on endogenous ROS levels induced by peroxide in yeast were evaluated. Peroxide-induced ROS in yeast in the absence and presence of OSIP108 were measured using 2,7-dichlorodihydrofluorescein diacetate (H2DCFDA) (FIG. 3A). […] Moreover, we found the survival of peroxide-treated yeast cells (5 mM) to increase 27-fold upon incubation with 500 μM OSIP108 (FIG. 3B).

Col-0 A. thaliana plants = experiment: Paraquat lesion diameter on A. thaliana leaves infiltrated with OSIP108; type: in vivo, Arabidopsis thaliana; details: three days after paraquat (5 μl, 100 μM); leaf infiltrated with 100 μM OSIP108 24 h before; control 4.45±1.37 mm
Method: At least twelve soil grown, 4 week old Col-0 A. thaliana plants, were used in which one leaf of each plant was syringe-infiltrated with 100 μM OSIP108 dissolved in 1% dimethyl sulphoxide (DMSO). At least 12 control plants were mock treated with 1% DMSO only. After 24 h incubation in the growth chamber, the plants were inoculated with a drop of 5 μl paraquat (100 μM). The lesion diameters caused by the paraquat treatment were measured and compared 2 and 3 days after the treatment.

yeast Δccc2 mutant [4] = experiment: Exogenous OSIP108 on yeast Δccc2 mutant at lethal copper dose (MTT viability dye halo, ROS); type: cell-based; details: exogenous addition
Method: This was tested by spotting 5 μL of 10 mM OSIP108 onto agar plates containing a yeast Δccc2 mutant, 500 μM CuSO4 and a viability dye based on MTT. Plates were incubated for 24 h and placed at 4° C. for 2 days. Blue halos were indicative of surviving yeast cells.

[5] = test system: human hepatoma cell line HepG2; experiment: HepG2 cell viability (MTT) in presence of copper or cisplatin; type: cell-based
Method: The mean and SE of three experiments is shown. No: viability of cells without addition of peptide; OSIP: OSIP108 was added simultaneously added to cells together with Cu; OSIP pre, cells were preincubated with OSIP108 for 12 h prior to addition of Cu.
The human hepatoma cell line HepG2 which naturally expresses hATP7B was incubated with 100 μM of peptide OSIP108. The viability of cells was determined after 48 h exposure to toxic copper concentrations of 0.75 mM by MTT assay. The viability was calculated relative to cells that receive no copper (100%).

yeast BY4741 = experiment: Yeast growth inhibition by apoptosis-inducing compounds (OD600) with or without OSIP108; type: cell-based, Saccharomyces cerevisiae
Method: Yeast growth was monitored upon treatment with different apoptosis-inducing compounds in the presence (black bars) or absence (white bars) of 200 μM OSIP108. Percentage growth was calculated as the ratio of the OD600 of the treated culture over an unstressed yeast culture after 10 h (A) or 48 h (B) of incubation.
In this respect, in parallel with mitochondrial copper toxicity, the use of the other mitochondrial toxins, in casu valproic acid, tunicamycin, doxycyclin and cisplatin, expand the range of causes of mitochondrial dysfunction and help find a broader basis for compounds rescuing mitochondrial dysfunction. Optical density (OD600) of yeast BY4741 was monitored upon treatment with different apoptosis-inducing compounds in the presence or absence of 200 μM OSIP108. OSIP108 and apoptosis-inducers were added simultaneously to the yeast cells. Percentage growth was calculated as the ratio of the OD600 of the treated culture over an unstressed yeast culture after 10 h or 48 h of incubation. […] Also, OSIP108 but not OSIP(C3A) can rescue copper- and cisplatin-induced growth inhibition of yeast

[6] = test system: peroxide-induced ROS in yeast; experiment: ROS accumulation assay (H2DCFDA) in peroxide-treated yeast with exogenous OSIP; type: cell-based; details: 500 μM peptide, compared to mock treatment
Method: as §3, §4

[7] = test system: CHO cell lines expressing ATP7b; experiment: Viability (MTT) of CHO cells expressing ATP7b under toxic copper; type: cell-based; details: 100 μM OSIP108, 0.75 mM copper, 48 h
Method: as §1, §2

Sequence | halo test: average difference in halo diameter / tolerance to H2O2 [1] | copper-induced growth inhibition of Δccc2 mutant (yeast Δccc2 mutant [2]) | copper resistance / viability of CHO cells expressing ATP7b mutant H1069Q [3] | increase of survival of peroxide-treated yeast cells (WT yeast; 5 mM peroxide, 500 μM OSIP108) | average lesion diameter (Col-0 A. thaliana plants) | copper-induced accumulation of reactive oxygen species (ROS) in Δccc2 mutant (yeast Δccc2 mutant [4]) | viability of the Δccc2 yeast mutant (yeast Δccc2 mutant [4]; in presence of copper) | survival of Δccc2 yeast mutant at lethal copper dose (yeast Δccc2 mutant [4]; 5 μL of 10 mM OSIP108 spotted, 500 μM CuSO4) | copper resistance of HepG2 (viability) ([5]; FIG. 5, 100 μM OSIP108, 0.75 mM copper, 48 h, MTT) | survival of HepG2 cells in the presence of copper or cisplatin ([5]; pre-incubation with peptide) | rescue of copper- and cisplatin-induced growth inhibition of yeast (yeast BY4741) | yeast growth in presence of cisplatin (yeast BY4741; 200 uM OSIP108, 250 and 125 μM cisplatin, compared to control treatment) | rescue of yeast growth inhibition by other apoptosis-inducers (yeast BY4741; 200 μM OSIP108, apoptosis-inducers other than cisplatin) | peroxide-induced endogenous ROS (DCF fluorescence intensity) [6] | copper resistance / viability of CHO cells expressing ATP7b [7] | effect on survival of yeast cells after treatment with peroxide (in words) (WT yeast)
MLCVLQGLRE (listed as Arabidopsis thaliana) [OSIP108] | significantly lower | could alleviate copper-induced growth inhibition | enhanced the copper resistance; also recorded: significantly enhances copper resistance | 27 fold | 2.18±1.60 mm | reduced | increased viability | induces survival | significantly enhances copper resistance | increased survival | can rescue | significant increase in growth | fails to rescue | significantly lower | enhanced the copper resistance; also recorded: significantly enhances copper resistance | 
MLMYRMRSGAN (listed as Arabidopsis thaliana) [SIP11] | significant enhanced tolerance |  |  |  |  |  |  |  |  |  |  |  |  | decrease in the amount of endogenous ROS |  | less effect than SIP108
MIIIYYCFIIIIN (listed as Arabidopsis thaliana) [SIP14—2] | significant enhanced tolerance |  |  |  |  |  |  |  |  |  |  |  |  | decrease in the amount of endogenous ROS |  | less effect than SIP108
MIIINNDNYLLLFYNNN (listed as Arabidopsis thaliana) [SIP14—1] | significant enhanced tolerance |  |  |  |  |  |  |  |  |  |  |  |  | decrease in the amount of endogenous ROS |  | less effect than SIP108
